Measured values taken from ChEMBL document CHEMBL1250451, “Mechanistic insights into a Ca2+-dependent family of alpha-mannosidases in a human gut symbiont” (Nat Chem Biol, 2010).
Calls of active or inactive are those of the source. The rule behind the calls is not given here.

Legend:
Format in all cases: protein assay
[1] = target: T1, Glycoside hydrolase family 92 (BT_3963) (Bacteroides thetaiotaomicron) (UniProt Q8A0Q8); experiment: Activity of Bacteroides thetaiotaomicron GH92 alpha-mannosidase GH92 alpha-mannosidase 3963 assessed as mannose release at 1 mM after 16 hrs by HPLC relative to untreated control after 16 hrs by HPLC
T1 sequence (whole entry): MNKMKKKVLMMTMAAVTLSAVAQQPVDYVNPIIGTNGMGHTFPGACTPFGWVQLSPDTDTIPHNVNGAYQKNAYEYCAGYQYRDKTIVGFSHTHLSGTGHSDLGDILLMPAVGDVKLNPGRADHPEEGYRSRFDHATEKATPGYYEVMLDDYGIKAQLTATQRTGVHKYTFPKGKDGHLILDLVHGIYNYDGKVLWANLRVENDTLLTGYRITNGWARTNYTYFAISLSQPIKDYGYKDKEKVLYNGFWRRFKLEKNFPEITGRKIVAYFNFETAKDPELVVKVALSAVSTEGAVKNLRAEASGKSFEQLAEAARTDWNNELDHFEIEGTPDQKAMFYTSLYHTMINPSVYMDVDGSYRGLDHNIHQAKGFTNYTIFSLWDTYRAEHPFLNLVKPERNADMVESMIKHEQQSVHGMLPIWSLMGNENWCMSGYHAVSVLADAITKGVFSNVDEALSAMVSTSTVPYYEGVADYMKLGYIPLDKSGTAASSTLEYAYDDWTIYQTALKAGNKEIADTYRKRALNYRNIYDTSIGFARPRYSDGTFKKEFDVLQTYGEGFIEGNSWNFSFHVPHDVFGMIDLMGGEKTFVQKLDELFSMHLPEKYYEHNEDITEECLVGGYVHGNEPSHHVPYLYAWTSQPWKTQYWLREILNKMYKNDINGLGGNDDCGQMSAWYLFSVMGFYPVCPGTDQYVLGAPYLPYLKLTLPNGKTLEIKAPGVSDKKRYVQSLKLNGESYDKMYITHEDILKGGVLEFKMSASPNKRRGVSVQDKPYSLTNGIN

[2] = target: T2, Alpha-1,2-mannosidase, putative (BT_3130) (Bacteroides thetaiotaomicron) (UniProt Q8A325); experiment: Activity of Bacteroides thetaiotaomicron GH92 alpha-mannosidase GH92 alpha-mannosidase 3130 assessed as mannose release at 1 mM after 16 hrs by HPLC relative to untreated control after 16 hrs by HPLC
T2 sequence (whole entry): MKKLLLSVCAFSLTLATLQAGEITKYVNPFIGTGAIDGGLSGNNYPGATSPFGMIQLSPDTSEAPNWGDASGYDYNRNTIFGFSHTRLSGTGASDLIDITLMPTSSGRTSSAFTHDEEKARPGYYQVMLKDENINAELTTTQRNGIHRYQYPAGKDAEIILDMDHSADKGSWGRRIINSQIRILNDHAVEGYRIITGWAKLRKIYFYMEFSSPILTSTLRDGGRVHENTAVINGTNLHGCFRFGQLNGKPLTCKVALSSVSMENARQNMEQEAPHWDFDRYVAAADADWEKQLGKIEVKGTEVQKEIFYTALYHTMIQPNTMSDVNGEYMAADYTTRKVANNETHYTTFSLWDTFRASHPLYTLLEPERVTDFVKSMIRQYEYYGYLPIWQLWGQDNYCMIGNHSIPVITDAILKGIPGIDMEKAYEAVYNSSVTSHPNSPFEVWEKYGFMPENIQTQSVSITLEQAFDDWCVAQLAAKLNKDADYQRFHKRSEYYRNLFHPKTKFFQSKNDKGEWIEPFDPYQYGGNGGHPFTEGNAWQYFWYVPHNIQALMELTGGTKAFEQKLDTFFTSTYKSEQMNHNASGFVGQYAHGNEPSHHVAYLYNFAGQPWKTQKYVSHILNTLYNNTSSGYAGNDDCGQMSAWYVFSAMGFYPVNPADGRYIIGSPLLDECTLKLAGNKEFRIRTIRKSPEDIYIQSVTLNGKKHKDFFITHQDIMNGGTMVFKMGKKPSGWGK

[3] = target: T3, Alpha-1,2-mannosidase (BT_3990) (Bacteroides thetaiotaomicron) (UniProt Q8A0N1); experiment: Activity of Bacteroides thetaiotaomicron GH92 alpha-mannosidase GH92 alpha-mannosidase 3990 assessed as mannose release at 1 mM after 16 hrs by HPLC relative to untreated control after 16 hrs by HPLC
T3 sequence (whole entry): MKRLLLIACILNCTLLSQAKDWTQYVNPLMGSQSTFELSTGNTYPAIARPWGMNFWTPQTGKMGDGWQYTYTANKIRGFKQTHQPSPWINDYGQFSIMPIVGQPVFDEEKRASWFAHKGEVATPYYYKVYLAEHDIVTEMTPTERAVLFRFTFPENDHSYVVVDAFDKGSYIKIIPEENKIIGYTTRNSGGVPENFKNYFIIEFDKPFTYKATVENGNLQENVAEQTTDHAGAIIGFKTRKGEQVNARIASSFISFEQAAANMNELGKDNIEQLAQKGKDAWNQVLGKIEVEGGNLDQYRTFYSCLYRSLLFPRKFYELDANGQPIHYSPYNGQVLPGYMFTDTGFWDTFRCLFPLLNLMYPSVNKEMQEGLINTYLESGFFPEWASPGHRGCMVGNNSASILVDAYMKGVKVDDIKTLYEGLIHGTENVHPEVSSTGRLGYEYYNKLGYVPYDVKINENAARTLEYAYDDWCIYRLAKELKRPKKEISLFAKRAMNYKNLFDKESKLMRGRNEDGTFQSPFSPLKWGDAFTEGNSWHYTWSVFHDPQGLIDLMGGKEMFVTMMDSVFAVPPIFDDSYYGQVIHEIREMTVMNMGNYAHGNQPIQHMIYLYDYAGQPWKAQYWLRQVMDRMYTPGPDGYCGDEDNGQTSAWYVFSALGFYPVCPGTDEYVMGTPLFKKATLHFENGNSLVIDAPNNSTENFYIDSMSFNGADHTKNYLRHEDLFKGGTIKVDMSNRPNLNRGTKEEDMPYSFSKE

Row | Compound | Activity [1] | Activity [2] [%] | Activity [3]
1 | OC[C@H]1O[C@H](O[C@H]2[C@@H](O)[C@H](O)[C@@H](CO)O[C@@H]2O)[C@@H](O)[C@@H](O)[C@@H]1O | inactive | 4.3 | 100%
2 | OC[C@H]1O[C@H](OC[C@H]2O[C@H](O)[C@@H](O)[C@@H](O)[C@@H]2O)[C@@H](O)[C@@H](O)[C@@H]1O | inactive | 21 | inactive
3 | OC[C@H]1O[C@H](O[C@@H]2[C@H](O)[C@@H](O)O[C@H](CO)[C@H]2O)[C@@H](O)[C@@H](O)[C@@H]1O | inactive |  | 0.036%
4 | OC[C@H]1O[C@H](O[C@H]2[C@H](O)[C@H](O)[C@@H](O)O[C@@H]2CO)[C@@H](O)[C@@H](O)[C@@H]1O | inactive | 23 | 0.022%
